In ChEMBL document CHEMBL4004838, “Design and synthesis of novel phenyl -1, 4-beta-carboline-hybrid molecules as potential anticancer agents” (Eur J Med Chem, 2017):

Legend:
Type in all cases: functional
OVCAR-3 [1] = experiment: Growth inhibition of human OVCAR3 cells assessed as cell growth at 100 uM incubated for 48 hrs by sulforhodamine B assay relative to control; conditions: OVCAR-3, 48 h, read-out: Activity
OVCAR-3 [2] = experiment: Growth inhibition of human OVCAR3 cells assessed as cell growth at 0.1 uM incubated for 48 hrs by sulforhodamine B assay relative to control; conditions: OVCAR-3, 48 h, read-out: Activity
SF-539 = experiment: Growth inhibition of human SF539 cells assessed as cell growth at 0.01 uM incubated for 48 hrs by sulforhodamine B assay relative to control; conditions: SF-539, 48 h, read-out: Activity
DU-145 = experiment: Growth inhibition of human DU145 cells assessed as cell growth at 100 uM incubated for 48 hrs by sulforhodamine B assay relative to control; conditions: DU-145, 48 h, read-out: Activity
SK-OV-3 = experiment: Growth inhibition of human SKOV3 cells assessed as cell growth at 0.1 uM incubated for 48 hrs by sulforhodamine B assay relative to control; conditions: SK-OV-3, 48 h, read-out: Activity
UO-31 [3] = experiment: Growth inhibition of human UO31 cells assessed as cell growth at 0.01 uM incubated for 48 hrs by sulforhodamine B assay relative to control; conditions: UO-31, 48 h, read-out: Activity
HOP-92 = experiment: Growth inhibition of human HOP92 cells assessed as cell growth at 100 uM incubated for 48 hrs by sulforhodamine B assay relative to control; conditions: HOP-92, 48 h, read-out: Activity
MCF7 = experiment: Growth inhibition of human MCF7 cells incubated for 48 hrs by sulforhodamine B assay; conditions: MCF7, 48 h
786-0 = experiment: Growth inhibition of human 786-0 cells incubated for 48 hrs by sulforhodamine B assay; conditions: 786-0, 48 h
M14 = experiment: Growth inhibition of human M14 cells assessed as cell growth at 100 uM incubated for 48 hrs by sulforhodamine B assay relative to control; conditions: M14, 48 h, read-out: Activity
SW-620 = experiment: Growth inhibition of human SW620 cells assessed as cell growth at 0.1 uM incubated for 48 hrs by sulforhodamine B assay relative to control; conditions: SW-620, 48 h, read-out: Activity
Hs-578T [4] = experiment: Growth inhibition of human Hs 578T cells assessed as cell growth at 100 uM incubated for 48 hrs by sulforhodamine B assay relative to control; conditions: read-out: Activity
SNB-19 = experiment: Growth inhibition of human SNB19 cells incubated for 48 hrs by sulforhodamine B assay; conditions: SNB-19, 48 h
UO-31 [5] = experiment: Growth inhibition of human UO31 cells incubated for 48 hrs by sulforhodamine B assay; conditions: UO-31, 48 h
NCI/ADR-RES = experiment: Growth inhibition of human NCI-ADR-RES cells assessed as cell growth at 1 uM incubated for 48 hrs by sulforhodamine B assay relative to control; conditions: read-out: Activity
UACC-257 = experiment: Growth inhibition of human UACC257 cells incubated for 48 hrs by sulforhodamine B assay; conditions: UACC-257, 48 h
MDA-MB-231 = experiment: Growth inhibition of human MDA-MB-231 cells assessed as cell growth at 0.1 uM incubated for 48 hrs by sulforhodamine B assay relative to control; conditions: MDA-MB-231, 48 h, read-out: Activity
T47D [6] = experiment: Growth inhibition of human T47D cells incubated for 48 hrs by sulforhodamine B assay
HL-60(TB) = experiment: Growth inhibition of human HL-60(TB) cells incubated for 48 hrs by sulforhodamine B assay; conditions: HL-60, 48 h
NCI-H522 = experiment: Growth inhibition of human NCI-H522 cells assessed as cell growth at 1 uM incubated for 48 hrs by sulforhodamine B assay relative to control; conditions: NCI-H522, 48 h, read-out: Activity
EKVX = experiment: Growth inhibition of human EKVX cells incubated for 48 hrs by sulforhodamine B assay
HCT-116 = experiment: Growth inhibition of human HCT116 cells incubated for 48 hrs by sulforhodamine B assay; conditions: HCT-116, 48 h
SK-MEL-5 = experiment: Growth inhibition of human SK-MEL-5 cells assessed as cell growth at 100 uM incubated for 48 hrs by sulforhodamine B assay relative to control; conditions: SK-MEL-5, 48 h, read-out: Activity
MOLT-4 = experiment: Growth inhibition of human MOLT4 cells assessed as cell growth at 100 uM incubated for 48 hrs by sulforhodamine B assay relative to control; conditions: MOLT-4, 48 h, read-out: Activity
Hs-578T [7] = experiment: Growth inhibition of human Hs 578T cells assessed as cell growth at 0.01 uM incubated for 48 hrs by sulforhodamine B assay relative to control; conditions: read-out: Activity
SF-268 = experiment: Growth inhibition of human SF268 cells incubated for 48 hrs by sulforhodamine B assay; conditions: SF-268, 48 h
NCI-H226 = experiment: Growth inhibition of human NCI-H226 cells assessed as cell growth at 0.1 uM incubated for 48 hrs by sulforhodamine B assay relative to control; conditions: NCI-H226, 48 h, read-out: Activity
T47D [8] = experiment: Growth inhibition of human T47D cells assessed as cell growth at 0.1 uM incubated for 48 hrs by sulforhodamine B assay relative to control; conditions: read-out: Activity
[9] = read-out: LC50 (the source's name)
[10] = read-out: pLC50 (the source's name) (converted)

SMILES: c1ccc2c3c([nH]c2c1)C(c1ccc(C2NCCc4c2[nH]c2ccccc42)cc1)NCC3 (racemic)
- growth at 100 µM (OVCAR-3 [1]): 82%
- growth at 0.1 µM (OVCAR-3 [2]): 96%
- growth at 0.01 µM (SF-539): 93%
- growth at 100 µM (DU-145): -94%
- growth at 0.1 µM (SK-OV-3): 95%
- growth at 0.01 µM (UO-31 [3]): 89%
- growth at 100 µM (HOP-92): 90%
- CC50 (MCF7; [9]): 6.1 µM
- GI50 (MCF7; read-out: pGI50 (converted)): 0.389 µM
- CC50 (MCF7; [10]): 6.17 µM
- TGI (MCF7; read-out: pTGI (converted)): 1.74 µM
- GI50 (786-0; read-out: GI50): 1.74 µM
- CC50 (786-0; [9]): 6.54 µM
- TGI (786-0; read-out: TGI): 3.38 µM
- GI50 (786-0; read-out: pGI50 (converted)): 1.74 µM
- CC50 (786-0; [10]): 6.61 µM
- TGI (786-0; read-out: pTGI (converted)): 3.39 µM
- growth at 100 µM (M14): 95%
- growth at 0.1 µM (SW-620): 100%
- growth at 100 µM (Hs-578T [4]): -65%
- GI50 (SNB-19; read-out: GI50): 1.73 µM
- CC50 (SNB-19; [9]): 7.25 µM
- TGI (SNB-19; read-out: TGI): 3.54 µM
- GI50 (SNB-19; read-out: pGI50 (converted)): 1.74 µM
- CC50 (SNB-19; [10]): 7.24 µM
- TGI (SNB-19; read-out: pTGI (converted)): 3.55 µM
- GI50 (UO-31 [5]; read-out: GI50): 1.04 µM
- CC50 (UO-31 [5]; [9]): 4.92 µM
- TGI (UO-31 [5]; read-out: TGI): 2.26 µM
- GI50 (UO-31 [5]; read-out: pGI50 (converted)): 1.05 µM
- CC50 (UO-31 [5]; [10]): 4.9 µM
- TGI (UO-31 [5]; read-out: pTGI (converted)): 2.24 µM
- growth at 1 µM (NCI/ADR-RES): 78%
- GI50 (UACC-257; read-out: GI50): 1.19 µM
- CC50 (UACC-257; [9]): 6.5 µM
- TGI (UACC-257; read-out: TGI): 3.52 µM
- GI50 (UACC-257; read-out: pGI50 (converted)): 1.91 µM
- CC50 (UACC-257; [10]): 6.46 µM
- TGI (UACC-257; read-out: pTGI (converted)): 3.55 µM
- growth at 0.1 µM (MDA-MB-231): 97%
- GI50 (T47D [6]; read-out: GI50): 1.31 µM
- CC50 (T47D [6]; [9]): 7.13 µM
- TGI (T47D [6]; read-out: TGI): 3.06 µM
- GI50 (T47D [6]; read-out: pGI50 (converted)): 1.32 µM
- CC50 (T47D [6]; [10]): 7.08 µM
- TGI (T47D [6]; read-out: pTGI (converted)): 3.09 µM
- GI50 (HL-60(TB); read-out: GI50): 1.13 µM
- CC50 (HL-60(TB); [9]): 6.99 µM
- TGI (HL-60(TB); read-out: TGI): 2.81 µM
- GI50 (HL-60(TB); read-out: pGI50 (converted)): 1.12 µM
- CC50 (HL-60(TB); [10]): 6.92 µM
- TGI (HL-60(TB); read-out: pTGI (converted)): 2.82 µM
- growth at 1 µM (NCI-H522): 16%
- GI50 (EKVX; read-out: GI50): 1.42 µM
- CC50 (EKVX; [9]): 8.12 µM
- TGI (EKVX; read-out: TGI): 3.39 µM
- GI50 (EKVX; read-out: pGI50 (converted)): 2.24 µM
- CC50 (EKVX; [10]): 8.13 µM
- TGI (EKVX; read-out: pTGI (converted)): 3.39 µM
- GI50 (HCT-116; read-out: GI50): 1.7 µM
- CC50 (HCT-116; [9]): 6.59 µM
- TGI (HCT-116; read-out: TGI): 3.35 µM
- GI50 (HCT-116; read-out: pGI50 (converted)): 0.17 µM
- CC50 (HCT-116; [10]): 0.661 µM
- growth at 100 µM (SK-MEL-5): 93%
- growth at 100 µM (MOLT-4): 76%
- growth at 0.01 µM (Hs-578T [7]): 93%
- GI50 (SF-268; read-out: GI50): 1.12 µM
- CC50 (SF-268; [9]): 5.89 µM
- TGI (SF-268; read-out: TGI): 2.57 µM
- GI50 (SF-268; read-out: pGI50 (converted)): 1.12 µM
- CC50 (SF-268; [10]): 5.89 µM
- TGI (SF-268; read-out: pTGI (converted)): 2.57 µM
- growth at 0.1 µM (NCI-H226): 95%
- growth at 0.1 µM (T47D [8]): 86%
